# Publication PMC4503722, “Novel Phenotypic Outcomes Identified for a Public Collection of Approved Drugs from a Publicly Accessible Panel of Assays” (PLoS ONE, 2015)
# Legend:
# [1] = system: nuclear β-catenin in C2C12 cells; assay: cells; assay type: cell-based; settings: assay number 5; concentration response
# [2] = system: alkaline phosphatase (ALP) activity in C2C12 cells; assay type: cell-based; settings: assay number 6; concentration response
# NCI-H716 cells = assay: cells; assay type: cell-based, Human; settings: assay number 12
# STC-1 cell line = assay type: cell-based, mouse; settings: assay number 13
# HeLa cells = assay: cells; assay type: cell-based; settings: for Hela CellCycMod PI 2N IC50/EC50: assay number 14; for Hela CellCycMod PI S Phase IC50/EC50: assay number 15; for Hela CellCycMod PI 4N IC50/EC50: assay number 16; for Hela CellCycMod PI MI IC50/EC50: assay number 17; for Hela CellCycMod PI Cell Number IC50/EC50: assay number 18
# DLD-1 = assay: cells; assay type: cell-based; settings: assay number 23
# SW480 = assay: cells; assay type: cell-based; settings: assay number 24
# HCT116 = assay: cells; assay type: cell-based; settings: assay number 25; basal
# Colo320 = assay: cells; assay type: cell-based; settings: assay number 27
# HT-29 = assay: cells; assay type: cell-based; settings: assay number 28
# RKO = assay: cells; assay type: cell-based; settings: assay number 29
# SNU-C1 = assay: cells; assay type: cell-based; settings: assay number 30
# hp70S6K1 (RPS6KB1) = target: T1, hp70S6K1 (RPS6KB1) (Homo sapiens, UniProt P23443); assay: Cerep LANCE kinase assay hp70S6K1 (S1 assay 31); assay type: biochemical; settings: assay number 31
# T1 construct: purchased Cerep (LANCE kinase assay platform, contract assay)
# hKDR = target: T2, hKDR (Homo sapiens, UniProt P35968); assay: Cerep LANCE kinase assay hKDR (S1 assay 32); assay type: biochemical; settings: assay number 32
# T2 construct: purchased Cerep (LANCE kinase assay platform, contract assay)
# hJAK2 = target: T3, hJAK2 (Homo sapiens, UniProt O60674); assay: Cerep LANCE kinase assay hJAK2 (S1 assay 33); assay type: biochemical; settings: assay number 33
# T3 construct: purchased Cerep (LANCE kinase assay platform, contract assay)
# hGSK3b = target: T4, hGSK3b (Homo sapiens, UniProt P49841); assay: Cerep LANCE kinase assay hGSK3b (S1 assay 34); assay type: biochemical; settings: assay number 34
# T4 construct: purchased Cerep (LANCE kinase assay platform, contract assay)
# hFLT3 = target: T5, hFLT3 (Homo sapiens, UniProt P36888); assay: Cerep LANCE kinase assay hFLT3 (S1 assay 35); assay type: biochemical; settings: assay number 35
# T5 construct: purchased Cerep (LANCE kinase assay platform, contract assay)
# [3] = system: endothelial tube formation in co-cultures of ECFCs and ADSCs treated with VEGF; assay: cells; assay type: cell-based, human
# [4] = system: ECFC/ADSC co-culture cell nuclei number
# INS-1E cells = assay: cells; assay type: cell-based, rat; settings: assay number 8; 5 mM glucose;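 further: secreted insulin quantified by homogeneous immunoassay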
# [5] = system: HCT116 cells treated with a GSK3β inhibitor; assay: cells; assay type: cell-based; settings: assay number 26; GSK3b inhibitor pretreated
# T4 sequence (P49841 whole entry): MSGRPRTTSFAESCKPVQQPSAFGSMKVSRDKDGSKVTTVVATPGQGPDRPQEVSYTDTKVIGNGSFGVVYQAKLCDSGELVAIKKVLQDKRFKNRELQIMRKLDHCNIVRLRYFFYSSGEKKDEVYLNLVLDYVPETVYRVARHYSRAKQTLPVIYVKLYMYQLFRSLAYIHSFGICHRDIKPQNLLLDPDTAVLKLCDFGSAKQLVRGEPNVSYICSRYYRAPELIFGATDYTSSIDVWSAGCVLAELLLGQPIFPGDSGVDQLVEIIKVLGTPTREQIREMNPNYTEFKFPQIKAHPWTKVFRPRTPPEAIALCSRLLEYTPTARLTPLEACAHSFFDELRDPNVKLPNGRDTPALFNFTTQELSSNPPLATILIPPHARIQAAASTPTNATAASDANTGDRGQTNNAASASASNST
# T1 sequence (P23443 whole entry): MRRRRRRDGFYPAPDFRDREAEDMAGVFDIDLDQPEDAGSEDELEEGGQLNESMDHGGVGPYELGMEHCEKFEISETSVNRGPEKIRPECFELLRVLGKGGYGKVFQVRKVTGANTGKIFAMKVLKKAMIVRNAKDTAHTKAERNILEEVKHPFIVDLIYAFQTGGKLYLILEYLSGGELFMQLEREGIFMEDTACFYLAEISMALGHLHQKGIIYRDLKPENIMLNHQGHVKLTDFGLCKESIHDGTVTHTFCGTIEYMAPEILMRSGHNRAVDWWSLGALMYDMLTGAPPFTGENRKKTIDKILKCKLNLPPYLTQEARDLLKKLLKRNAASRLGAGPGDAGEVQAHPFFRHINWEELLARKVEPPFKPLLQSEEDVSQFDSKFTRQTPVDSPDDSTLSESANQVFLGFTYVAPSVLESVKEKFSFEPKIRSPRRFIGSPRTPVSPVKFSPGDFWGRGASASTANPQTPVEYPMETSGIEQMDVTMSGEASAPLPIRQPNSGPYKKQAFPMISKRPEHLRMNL
# T3 sequence (O60674 whole entry): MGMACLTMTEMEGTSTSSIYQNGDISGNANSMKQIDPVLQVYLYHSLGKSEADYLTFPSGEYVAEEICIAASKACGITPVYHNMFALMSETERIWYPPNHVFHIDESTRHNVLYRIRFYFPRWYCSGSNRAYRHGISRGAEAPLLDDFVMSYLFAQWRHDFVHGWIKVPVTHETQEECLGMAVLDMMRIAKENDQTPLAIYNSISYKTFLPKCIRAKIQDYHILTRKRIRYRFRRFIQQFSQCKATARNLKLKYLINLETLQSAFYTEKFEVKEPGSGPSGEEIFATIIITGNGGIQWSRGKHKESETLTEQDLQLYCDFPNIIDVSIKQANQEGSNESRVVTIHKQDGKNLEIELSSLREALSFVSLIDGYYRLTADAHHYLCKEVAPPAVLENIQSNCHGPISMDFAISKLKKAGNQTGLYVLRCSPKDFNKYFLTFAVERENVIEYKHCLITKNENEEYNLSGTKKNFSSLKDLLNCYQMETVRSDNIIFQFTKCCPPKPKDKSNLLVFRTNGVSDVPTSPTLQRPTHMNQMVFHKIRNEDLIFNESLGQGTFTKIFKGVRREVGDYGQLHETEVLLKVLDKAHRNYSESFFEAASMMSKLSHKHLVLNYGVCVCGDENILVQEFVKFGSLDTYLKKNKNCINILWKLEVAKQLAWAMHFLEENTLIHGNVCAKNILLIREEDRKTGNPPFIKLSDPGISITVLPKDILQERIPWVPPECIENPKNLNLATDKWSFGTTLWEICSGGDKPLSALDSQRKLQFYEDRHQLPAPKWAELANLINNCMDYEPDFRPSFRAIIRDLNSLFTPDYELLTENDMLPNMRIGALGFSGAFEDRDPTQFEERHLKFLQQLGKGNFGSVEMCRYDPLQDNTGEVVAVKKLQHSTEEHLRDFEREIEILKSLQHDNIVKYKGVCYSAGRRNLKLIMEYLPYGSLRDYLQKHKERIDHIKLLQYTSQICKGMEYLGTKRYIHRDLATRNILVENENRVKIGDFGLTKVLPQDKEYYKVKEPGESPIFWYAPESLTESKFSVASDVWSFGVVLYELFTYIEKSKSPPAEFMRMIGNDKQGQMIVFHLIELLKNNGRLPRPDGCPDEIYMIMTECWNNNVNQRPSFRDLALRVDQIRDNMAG
# T5 sequence (P36888 27-993): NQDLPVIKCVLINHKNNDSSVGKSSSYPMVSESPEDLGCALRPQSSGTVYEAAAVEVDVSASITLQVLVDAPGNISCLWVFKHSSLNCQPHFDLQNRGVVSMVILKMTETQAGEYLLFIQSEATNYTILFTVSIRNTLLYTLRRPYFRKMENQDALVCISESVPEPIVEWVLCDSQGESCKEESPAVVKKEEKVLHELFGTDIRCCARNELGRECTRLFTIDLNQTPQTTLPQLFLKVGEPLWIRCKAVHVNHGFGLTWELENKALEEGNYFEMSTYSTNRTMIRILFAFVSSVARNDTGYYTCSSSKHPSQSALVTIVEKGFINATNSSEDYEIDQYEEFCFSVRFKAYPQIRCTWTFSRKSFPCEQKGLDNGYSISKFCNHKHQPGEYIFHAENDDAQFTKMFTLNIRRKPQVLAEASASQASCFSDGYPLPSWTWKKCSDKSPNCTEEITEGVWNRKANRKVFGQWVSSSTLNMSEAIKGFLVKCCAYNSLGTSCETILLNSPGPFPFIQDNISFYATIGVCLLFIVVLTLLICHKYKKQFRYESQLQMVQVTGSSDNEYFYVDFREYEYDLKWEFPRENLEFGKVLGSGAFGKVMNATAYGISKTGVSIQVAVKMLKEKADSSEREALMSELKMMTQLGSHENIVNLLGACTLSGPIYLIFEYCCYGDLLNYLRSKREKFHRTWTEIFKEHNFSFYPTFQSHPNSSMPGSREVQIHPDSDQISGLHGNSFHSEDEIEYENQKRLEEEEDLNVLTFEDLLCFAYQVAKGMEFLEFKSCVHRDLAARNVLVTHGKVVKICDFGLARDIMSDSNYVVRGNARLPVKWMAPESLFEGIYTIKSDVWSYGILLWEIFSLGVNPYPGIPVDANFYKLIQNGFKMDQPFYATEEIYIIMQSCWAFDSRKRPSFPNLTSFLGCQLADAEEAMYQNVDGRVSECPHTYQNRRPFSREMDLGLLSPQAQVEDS
# T2 sequence (P35968 20-1356): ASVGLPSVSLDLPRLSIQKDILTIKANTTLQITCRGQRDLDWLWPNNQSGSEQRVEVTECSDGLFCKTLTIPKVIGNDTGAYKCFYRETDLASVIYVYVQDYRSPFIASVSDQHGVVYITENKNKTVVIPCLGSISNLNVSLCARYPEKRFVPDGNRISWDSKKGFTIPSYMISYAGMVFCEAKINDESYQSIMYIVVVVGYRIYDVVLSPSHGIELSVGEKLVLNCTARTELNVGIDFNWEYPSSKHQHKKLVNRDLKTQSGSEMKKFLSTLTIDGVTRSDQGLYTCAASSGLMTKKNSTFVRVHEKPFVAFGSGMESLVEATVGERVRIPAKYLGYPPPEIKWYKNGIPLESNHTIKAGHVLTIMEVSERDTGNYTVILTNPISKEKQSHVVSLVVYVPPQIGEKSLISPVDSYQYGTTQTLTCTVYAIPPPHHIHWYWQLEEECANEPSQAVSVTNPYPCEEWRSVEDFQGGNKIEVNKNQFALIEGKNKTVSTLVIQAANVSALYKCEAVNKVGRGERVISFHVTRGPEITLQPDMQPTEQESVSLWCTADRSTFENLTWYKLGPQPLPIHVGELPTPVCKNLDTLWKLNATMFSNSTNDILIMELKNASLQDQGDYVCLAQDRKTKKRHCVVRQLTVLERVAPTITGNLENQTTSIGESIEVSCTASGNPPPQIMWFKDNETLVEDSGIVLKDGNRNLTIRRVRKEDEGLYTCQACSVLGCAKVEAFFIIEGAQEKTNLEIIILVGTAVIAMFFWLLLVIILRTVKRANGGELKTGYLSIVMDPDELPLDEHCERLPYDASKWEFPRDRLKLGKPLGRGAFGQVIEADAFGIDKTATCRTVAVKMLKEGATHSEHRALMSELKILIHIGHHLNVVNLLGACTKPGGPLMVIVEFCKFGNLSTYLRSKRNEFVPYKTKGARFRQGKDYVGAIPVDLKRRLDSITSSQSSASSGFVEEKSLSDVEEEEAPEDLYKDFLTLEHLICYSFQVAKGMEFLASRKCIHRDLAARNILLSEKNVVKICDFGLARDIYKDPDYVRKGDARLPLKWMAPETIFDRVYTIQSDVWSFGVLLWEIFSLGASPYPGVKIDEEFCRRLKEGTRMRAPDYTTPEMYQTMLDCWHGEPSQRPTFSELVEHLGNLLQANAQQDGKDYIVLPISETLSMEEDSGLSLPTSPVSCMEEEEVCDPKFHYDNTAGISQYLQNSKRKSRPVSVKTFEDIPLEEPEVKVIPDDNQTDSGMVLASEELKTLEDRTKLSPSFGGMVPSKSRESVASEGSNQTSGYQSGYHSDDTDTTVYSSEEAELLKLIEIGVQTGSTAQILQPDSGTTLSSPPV
Structure (SMILES),WntCondMedia_bCatenin C2C12 IC50/EC50 [1] [µM],WntCondMedia_Alk Phos C2C12 IC50/EC50 [2] [µM],hNCI-H716 GLP1 Secretion IC50/EC50 (NCI-H716 cells) [µM],mSTC-1 GLP1 Secretion IC50/EC50 (STC-1 cell line) [µM],Hela CellCycMod PI 2N IC50/EC50 (HeLa cells) [µM],Hela CellCycMod PI S Phase IC50/EC50 (HeLa cells) [µM],Hela CellCycMod PI 4N IC50/EC50 (HeLa cells) [µM],Hela CellCycMod PI MI IC50/EC50 (HeLa cells) [µM],Hela CellCycMod PI Cell Number IC50/EC50 (HeLa cells) [µM],Basal_Viability ATP DLD-1 IC50/EC50 (DLD-1; basal) [µM],Basal_Viability ATP SW480 IC50/EC50 (SW480; basal) [µM],Basal_Viability ATP HCT116 IC50/EC50 (HCT116) [µM],hp70S6K1 LANCE IC50/EC50 (hp70S6K1 (RPS6KB1)) [µM],hKDR LANCE IC50/EC50 (hKDR) [µM],hJAK2 LANCE IC50/EC50 (hJAK2) [µM],hGSK3b LANCE IC50/EC50 (hGSK3b) [µM],hFLT3 LANCE IC50/EC50 (hFLT3) [µM],VEGF_ADSC\ECFC Angio CD31 TubeArea IC50/EC50 [3] [µM],VEGF_ADSC\ECFC Angio Hoechst NucArea IC50/EC50 [4] [µM],GSK3b inh pretreated_Viability ATP HCT116 IC50/EC50 [5] [µM],other results
Cc1cc2c(C(C)C)c(O)c(O)c(C=O)c2c(O)c1-c1c(C)cc2c(C(C)C)c(O)c(O)c(C=O)c2c1O [NCGC00016423-15],3.4859,> 20,23.4306,> 40,> 10,> 10,> 10,> 10,3.7083,0.8345,0.9563,0.7844,> 20,> 20,> 20,> 20,> 20,,,,Basal_Viability ATP Colo 320 IC50/EC50 (Colo320; basal): 1.3794 µM; Basal_Viability ATP HT-29 IC50/EC50 (HT-29; basal): 1.4237 µM; Basal_Viability ATP RKO IC50/EC50 (RKO; basal): 0.9156 µM; Basal_Viability ATP SNU-C1 IC50/EC50 (SNU-C1; basal): 0.3538 µM
C[C@@]12C(=O)OC(=O)[C@]1(C)C1CCC2O1 [NCGC00025212-08],> 20,1.4897,6.6758,13.7125,> 10,> 10,> 10,8.4996,1.0094,,,,> 20,> 20,> 20,> 20,> 20,1.2254,8.333,,
C#C[C@]1(O)CC[C@H]2[C@@H]3CCc4cc(OC5CCCC5)ccc4[C@H]3CC[C@@]21C [NCGC00166146-02],> 20,> 20,17.5795,> 40,,,,,,,,,,,,,,,,,
CC(=O)Oc1ccc(C2(c3ccc(OC(C)=O)cc3)Oc3ccccc3NC2=O)cc1 [NCGC00182998-01],> 20,13.9611,,,> 10,> 10,> 10,> 10,5.7532,,,,> 20,> 20,> 20,> 20,> 20,2.2736,> 10,3.2604,5mMGluc_INS1E SecretionMod IC50/EC50 (INS-1E cells): > 33.33 µM; Basal_Viability ATP DLD-1 IC50/EC50 (DLD-1): 19.7291 µM; Basal_Viability ATP SW480 IC50/EC50 (SW480): 9.1881 µM; Basal_Viability ATP Colo 320 IC50/EC50 (Colo320): > 20 µM; Basal_Viability ATP HT-29 IC50/EC50 (HT-29): > 20 µM; Basal_Viability ATP RKO IC50/EC50 (RKO): 9.2255 µM; Basal_Viability ATP SNU-C1 IC50/EC50 (SNU-C1): > 20 µM
c1ccc2c(c1)Sc1ccccc1N2CC1CN2CCC1CC2 (stereo not drawn) [NCGC00183046-03],> 20,> 20,> 40,> 40,,,,,,> 20,5.431,> 20,,,,,,9.4389,> 10,> 20,Basal_Viability ATP Colo 320 IC50/EC50 (Colo320; basal): > 20 µM; Basal_Viability ATP HT-29 IC50/EC50 (HT-29; basal): > 20 µM; Basal_Viability ATP RKO IC50/EC50 (RKO; basal): 8.4586 µM; Basal_Viability ATP SNU-C1 IC50/EC50 (SNU-C1; basal): > 20 µM
Cc1ccc2nc(N)[nH]c(=O)c2c1Sc1ccncc1.Cl.Cl [NCGC00263580-01],0.7099,0.2444,,,> 10,> 10,> 10,> 10,> 10,,,3.495,17.8,> 20,> 20,> 20,> 20,7.3662,> 10,0.8299,Basal_Viability ATP DLD-1 IC50/EC50 (DLD-1): > 20 µM; Basal_Viability ATP SW480 IC50/EC50 (SW480): 2.241 µM; Basal_Viability ATP Colo 320 IC50/EC50 (Colo320): > 20 µM; Basal_Viability ATP HT-29 IC50/EC50 (HT-29): 4.747 µM; Basal_Viability ATP RKO IC50/EC50 (RKO): 0.3429 µM; Basal_Viability ATP SNU-C1 IC50/EC50 (SNU-C1): > 20 µM
